Tested on: 616215-338-R-J1-PDC complex spheroid viability
Test: Anticancer human tumor 616215-338-R-J1-PDC patient-derived colon adenocarcinoma cell line growth inhibition [RAS]
Conditions: for IC50: curve of first compound; for viability, T/C: stronger effect = lower value
Outline: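 Tumour cells grown as complex spheroids with HUVEC endothelial cells and mesenchymal stem cells, treated with RAS pathway inhibitor combinations. Each agent spans half-log steps from near clinical Cmax, or 10 microM where Cmax is unknown.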

[1] = second compound 0.000949 µM, first compound 0.000949 µM
[2] = second compound 0.000949 µM, first compound 0.003 µM
[3] = second compound 0.000949 µM, first compound 0.00949 µM
[4] = second compound 0.000949 µM, first compound 0.03 µM
[5] = second compound 0.000949 µM, first compound 0.0949 µM
[6] = second compound 0.000949 µM, first compound 0.3 µM
[7] = second compound 0.003 µM, first compound 0.000949 µM
[8] = second compound 0.003 µM, first compound 0.003 µM
[9] = second compound 0.003 µM, first compound 0.00949 µM
[10] = second compound 0.003 µM, first compound 0.03 µM
[11] = second compound 0.003 µM, first compound 0.0949 µM
[12] = second compound 0.003 µM, first compound 0.3 µM
[13] = second compound 0.00949 µM, first compound 0.000949 µM
[14] = second compound 0.00949 µM, first compound 0.003 µM
[15] = second compound 0.00949 µM, first compound 0.00949 µM
[16] = second compound 0.00949 µM, first compound 0.03 µM
[17] = second compound 0.00949 µM, first compound 0.0949 µM
[18] = second compound 0.00949 µM, first compound 0.3 µM
[19] = second compound 0.03 µM, first compound 0.000949 µM
[20] = second compound 0.03 µM, first compound 0.003 µM
[21] = second compound 0.03 µM, first compound 0.00949 µM
[22] = second compound 0.03 µM, first compound 0.03 µM
[23] = second compound 0.03 µM, first compound 0.0949 µM
[24] = second compound 0.03 µM, first compound 0.3 µM
[25] = second compound 0.0949 µM, first compound 0.000949 µM
[26] = second compound 0.0949 µM, first compound 0.003 µM
[27] = second compound 0.0949 µM, first compound 0.00949 µM
[28] = second compound 0.0949 µM, first compound 0.03 µM
[29] = second compound 0.0949 µM, first compound 0.0949 µM
[30] = second compound 0.0949 µM, first compound 0.3 µM
[31] = second compound 0.3 µM, first compound 0.000949 µM
[32] = second compound 0.3 µM, first compound 0.003 µM
[33] = second compound 0.3 µM, first compound 0.00949 µM
[34] = second compound 0.3 µM, first compound 0.03 µM
[35] = second compound 0.3 µM, first compound 0.0949 µM
[36] = second compound 0.3 µM, first compound 0.3 µM
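Also: spheroids exposed to agents for seven days before viability readout.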
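For viability, T/C in this document: 100% = DMSO vehicle control viability.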

SMILES: C=CC(=O)N1CCN(c2nc(OCC3CCCN3C)nc3c(F)c(-c4nc(N)cc(C)c4C(F)(F)F)c(Cl)cc23)C(C)C1 (stereo unspecified) + CCn1c(-c2cc(N3CCN(C)CC3)cnc2C(C)OC)c2c3cc(ccc31)-c1csc(n1)CC(NC(=O)C1CC1C)C(=O)N1CCCC(N1)C(=O)OCC(C)(C)C2
- IC50 (second compound 0.000949 µM): > 1000 nM
- IC50 (second compound 0.003 µM): > 1000 nM
- IC50 (second compound 0.00949 µM): > 1000 nM
- IC50 (second compound 0.03 µM): < 3.16 nM
- IC50 (second compound 0.0949 µM): < 3.16 nM
- IC50 (second compound 0.3 µM): < 3.16 nM
- viability, T/C (second compound 0.000949 µM, first compound 0.00316 µM): 117%
- viability, T/C (second compound 0.000949 µM, first compound 0.01 µM): 103%
- viability, T/C (second compound 0.000949 µM, first compound 0.0316 µM): 108%
- viability, T/C (second compound 0.000949 µM, first compound 0.1 µM): 110%
- viability, T/C (second compound 0.000949 µM, first compound 0.316 µM): 109%
- viability, T/C (second compound 0.000949 µM, first compound 1 µM): 107%
- viability, T/C (second compound 0.003 µM, first compound 0.00316 µM): 114%
- viability, T/C (second compound 0.003 µM, first compound 0.01 µM): 109%
- viability, T/C (second compound 0.003 µM, first compound 0.0316 µM): 111%
- viability, T/C (second compound 0.003 µM, first compound 0.1 µM): 109%
- viability, T/C (second compound 0.003 µM, first compound 0.316 µM): 113%
- viability, T/C (second compound 0.003 µM, first compound 1 µM): 103%
- viability, T/C (second compound 0.00949 µM, first compound 0.00316 µM): 87.8%
- viability, T/C (second compound 0.00949 µM, first compound 0.01 µM): 77.8%
- viability, T/C (second compound 0.00949 µM, first compound 0.0316 µM): 81.5%
- viability, T/C (second compound 0.00949 µM, first compound 0.1 µM): 66.7%
- viability, T/C (second compound 0.00949 µM, first compound 0.316 µM): 73.8%
- viability, T/C (second compound 0.00949 µM, first compound 1 µM): 69.3%
- viability, T/C (second compound 0.03 µM, first compound 0.00316 µM): 43%
- viability, T/C (second compound 0.03 µM, first compound 0.01 µM): 55.5%
- viability, T/C (second compound 0.03 µM, first compound 0.0316 µM): 49.3%
- viability, T/C (second compound 0.03 µM, first compound 0.1 µM): 42.7%
- viability, T/C (second compound 0.03 µM, first compound 0.316 µM): 55.4%
- viability, T/C (second compound 0.03 µM, first compound 1 µM): 49.4%
- viability, T/C (second compound 0.0949 µM, first compound 0.00316 µM): 35%
- viability, T/C (second compound 0.0949 µM, first compound 0.01 µM): 30.8%
- viability, T/C (second compound 0.0949 µM, first compound 0.0316 µM): 42.2%
- viability, T/C (second compound 0.0949 µM, first compound 0.1 µM): 37.5%
- viability, T/C (second compound 0.0949 µM, first compound 0.316 µM): 49.4%
- viability, T/C (second compound 0.0949 µM, first compound 1 µM): 35.9%
- viability, T/C (second compound 0.3 µM, first compound 0.00316 µM): 40.3%
- viability, T/C (second compound 0.3 µM, first compound 0.01 µM): 31.8%
- viability, T/C (second compound 0.3 µM, first compound 0.0316 µM): 36%
- viability, T/C (second compound 0.3 µM, first compound 0.1 µM): 42.6%
- viability, T/C (second compound 0.3 µM, first compound 0.316 µM): 42.8%
- viability, T/C (second compound 0.3 µM, first compound 1 µM): 43.4%

SMILES: CC1(C)CCC(Nc2ncc(C(F)(F)F)c(-c3c[nH]c4c(P(C)(C)=O)c(C#N)ccc34)n2)CN1 (stereo unspecified) + CCn1c(-c2cc(N3CCN(C)CC3)cnc2C(C)OC)c2c3cc(ccc31)-c1csc(n1)CC(NC(=O)C1CC1C)C(=O)N1CCCC(N1)C(=O)OCC(C)(C)C2
- IC50 (second compound 0.000949 µM): 17.7 nM
- IC50 (second compound 0.003 µM): 14.1 nM
- IC50 (second compound 0.00949 µM): 7.66 nM
- IC50 (second compound 0.03 µM): 7.94 nM
- IC50 (second compound 0.0949 µM): < 0.949 nM
- IC50 (second compound 0.3 µM): < 0.949 nM
- viability, T/C [1]: 117%
- viability, T/C [2]: 92.4%
- viability, T/C [3]: 65.2%
- viability, T/C [4]: 35.7%
- viability, T/C [5]: 32.2%
- viability, T/C [6]: 39.1%
- viability, T/C [7]: 122%
- viability, T/C [8]: 98.1%
- viability, T/C [9]: 56.4%
- viability, T/C [10]: 37%
- viability, T/C [11]: 37.5%
- viability, T/C [12]: 39.6%
- viability, T/C [13]: 82.9%
- viability, T/C [14]: 73.8%
- viability, T/C [15]: 44.6%
- viability, T/C [16]: 38.6%
- viability, T/C [17]: 37.1%
- viability, T/C [18]: 40.8%
- viability, T/C [19]: 65.7%
- viability, T/C [20]: 61.7%
- viability, T/C [21]: 47.6%
- viability, T/C [22]: 32.4%
- viability, T/C [23]: 39%
- viability, T/C [24]: 40.1%
- viability, T/C [25]: 45.8%
- viability, T/C [26]: 44.3%
- viability, T/C [27]: 39.2%
- viability, T/C [28]: 39.3%
- viability, T/C [29]: 36.9%
- viability, T/C [30]: 32.9%
- viability, T/C [31]: 37.5%
- viability, T/C [32]: 46%
- viability, T/C [33]: 42%
- viability, T/C [34]: 32.6%
- viability, T/C [35]: 38.5%
- viability, T/C [36]: 39.2%

SMILES: CCc1c2c(nc3ccc(O)cc13)-c1cc3c(c(=O)n1C2)COC(=O)[C@]3(O)CC + CCn1c(-c2cc(N3CCN(C)CC3)cnc2C(C)OC)c2c3cc(ccc31)-c1csc(n1)CC(NC(=O)C1CC1C)C(=O)N1CCCC(N1)C(=O)OCC(C)(C)C2
- IC50 (second compound 0.000949 µM): 12.4 nM
- IC50 (second compound 0.003 µM): 6.6 nM
- IC50 (second compound 0.00949 µM): 3.33 nM
- IC50 (second compound 0.03 µM): < 0.949 nM
- IC50 (second compound 0.0949 µM): < 0.949 nM
- IC50 (second compound 0.3 µM): < 0.949 nM
- viability, T/C [1]: 109%
- viability, T/C [2]: 104%
- viability, T/C [3]: 51.5%
- viability, T/C [4]: 35.6%
- viability, T/C [5]: 21.2%
- viability, T/C [6]: 13.4%
- viability, T/C [7]: 109%
- viability, T/C [8]: 94.8%
- viability, T/C [9]: 29.1%
- viability, T/C [10]: 23.5%
- viability, T/C [11]: 21.3%
- viability, T/C [12]: 12.1%
- viability, T/C [13]: 87.6%
- viability, T/C [14]: 52.9%
- viability, T/C [15]: 21%
- viability, T/C [16]: 22.7%
- viability, T/C [17]: 18.4%
- viability, T/C [18]: 12.2%
- viability, T/C [19]: 45.2%
- viability, T/C [20]: 29.1%
- viability, T/C [21]: 23.2%
- viability, T/C [22]: 19.6%
- viability, T/C [23]: 15.2%
- viability, T/C [24]: 8.75%
- viability, T/C [25]: 36.2%
- viability, T/C [26]: 28.7%
- viability, T/C [27]: 18.1%
- viability, T/C [28]: 17.6%
- viability, T/C [29]: 14.6%
- viability, T/C [30]: 9.71%
- viability, T/C [31]: 35.1%
- viability, T/C [32]: 29.8%
- viability, T/C [33]: 24%
- viability, T/C [34]: 23.1%
- viability, T/C [35]: 17.5%
- viability, T/C [36]: 10.5%

Source: PubChem BioAssay AID2060898 (Molecular Pharmacology Branch, DTP, NCI, 2025)
